In US10364238B2, “N-((het) arylmethyl)-heteroaryl-carboxamides compounds as plasma kallikrein inhibitors” (KALVISTA PHARMACEUTICALS LIMITED, priority 2014, dated 2019):

Key:
Format in all cases: biochemical
Human FXIa = Human FXIa (Homo sapiens (Human), UniProt P03951); assay: Determination of the % inhibition for FXIa; conditions: 40 μM test compound, 25° C., substrate Z-Gly-Pro-Arg-AFC
Protocol: Determination of the % Inhibition for FXIa
Human FXIa (Enzyme Research Laboratories) was incubated at 25° C. with the fluorogenic substrate Z-Gly-Pro-Arg-AFC and 40 μM of the test compound. Residual enzyme activity (initial rate of reaction) was determined by measuring the change in […].

Human plasma kallikrein = Human plasma kallikrein (Homo sapiens (Human), UniProt P03952); assay: Determination of the IC50 for plasma kallikrein; conditions: 25° C., fluorogenic substrate H-DPro-Phe-Arg-AFC; read-out: IC50 (human PKaI)
Protocol: Determination of the IC50 for Plasma Kallikrein
(§1) Human plasma kallikrein (Protogen) was incubated at 25° C. with the fluorogenic substrate H-DPro-Phe-Arg-AFC and various concentrations of the test compound. Residual enzyme activity (initial rate of reaction) was determined by measuring the change in […] at 410 nm and the IC50 value for the test compound was determined.

Human KLK1 = Human KLK1 (Homo sapiens (Human), UniProt P06870); assay: Determination of the IC50 for KLK1; conditions: 25° C., fluorogenic substrate H-DVal-Leu-Arg-AFC
Protocol: Determination of the IC50 for KLK1
as §1, with “KLK1 (Callbiochem)” for “plasma kallikrein (Protogen)”, “H-DVal-Leu-Arg-AFC” for “H-DPro-Phe-Arg-AFC”

Chain of Human plasma kallikrein (P03952 391-638): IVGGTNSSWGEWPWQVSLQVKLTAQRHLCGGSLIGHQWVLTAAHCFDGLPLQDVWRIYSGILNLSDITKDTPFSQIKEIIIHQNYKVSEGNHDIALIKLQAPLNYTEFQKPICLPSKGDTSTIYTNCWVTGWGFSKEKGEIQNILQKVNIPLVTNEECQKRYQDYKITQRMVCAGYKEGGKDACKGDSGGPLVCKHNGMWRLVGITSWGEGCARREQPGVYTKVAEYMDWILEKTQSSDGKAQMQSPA
Chain of Human plasma kallikrein (P03952 20-390 partner): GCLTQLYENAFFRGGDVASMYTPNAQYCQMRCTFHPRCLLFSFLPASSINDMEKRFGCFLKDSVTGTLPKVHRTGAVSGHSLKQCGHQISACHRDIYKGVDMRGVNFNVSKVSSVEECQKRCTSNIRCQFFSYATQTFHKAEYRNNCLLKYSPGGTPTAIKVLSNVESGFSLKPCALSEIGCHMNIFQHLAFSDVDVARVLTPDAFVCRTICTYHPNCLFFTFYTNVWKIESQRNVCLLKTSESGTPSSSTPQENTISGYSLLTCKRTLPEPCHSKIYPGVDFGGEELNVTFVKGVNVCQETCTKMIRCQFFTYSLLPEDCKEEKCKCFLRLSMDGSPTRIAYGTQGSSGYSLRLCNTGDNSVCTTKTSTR
Chain of Human KLK1 (P06870 25-262): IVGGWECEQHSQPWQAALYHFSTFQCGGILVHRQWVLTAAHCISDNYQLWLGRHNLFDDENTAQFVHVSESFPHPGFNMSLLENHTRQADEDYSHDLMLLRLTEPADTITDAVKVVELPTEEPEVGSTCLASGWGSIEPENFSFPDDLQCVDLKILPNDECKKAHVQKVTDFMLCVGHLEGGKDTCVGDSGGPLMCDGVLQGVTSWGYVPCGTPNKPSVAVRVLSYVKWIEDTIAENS
Chain of Human FXIa (P03951 388-625): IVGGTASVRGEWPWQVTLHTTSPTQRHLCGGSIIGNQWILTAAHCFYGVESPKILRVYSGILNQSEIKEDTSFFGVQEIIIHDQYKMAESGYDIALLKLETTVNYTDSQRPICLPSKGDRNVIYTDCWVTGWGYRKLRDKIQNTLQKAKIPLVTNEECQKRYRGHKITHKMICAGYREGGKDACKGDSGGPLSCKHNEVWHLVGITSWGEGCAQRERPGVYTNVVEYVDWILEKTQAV
Chain of Human FXIa (P03951 19-387 partner): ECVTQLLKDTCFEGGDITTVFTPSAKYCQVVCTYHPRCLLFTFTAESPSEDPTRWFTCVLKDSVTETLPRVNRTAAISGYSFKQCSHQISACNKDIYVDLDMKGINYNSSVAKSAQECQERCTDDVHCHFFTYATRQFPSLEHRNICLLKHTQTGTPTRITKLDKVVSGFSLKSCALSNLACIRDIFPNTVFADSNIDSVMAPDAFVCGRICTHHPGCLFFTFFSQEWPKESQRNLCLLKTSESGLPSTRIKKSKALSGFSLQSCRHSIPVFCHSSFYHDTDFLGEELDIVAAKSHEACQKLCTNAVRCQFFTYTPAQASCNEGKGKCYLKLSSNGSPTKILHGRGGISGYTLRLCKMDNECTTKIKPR

Row | SMILES | inhibition at 40 µM (Human FXIa) | IC50 (Human plasma kallikrein) | IC50 (Human KLK1)
1 | COCc1nn(Cc2ccc(Cn3ccccc3=O)cc2)cc1C(=O)NCc1cc(OC)ccc1F [Example 64, N-[(2-fluoro-5-methoxyphenyl)methyl]-3-(methoxymethyl)-1-({4-[(2-oxopyridin-1-yl)methyl]phenyl}methyl)pyrazole-4-carboxamide] | 0% | 35.2 nM | > 10000 nM
2 | COCc1nn(Cc2ccc(Cn3ccccc3=O)cc2)cc1C(=O)NCc1ccc(C)cc1F [Example 65, N-[(2-fluoro-4-methylphenyl)methyl]-3-(methoxymethyl)-1-({4-[(2-oxopyridin-1-yl)methyl]phenyl}methyl)pyrazole-4-carboxamide] | 0% | 43.3 nM | > 10000 nM
3 | COCc1nn(Cc2ccc(Cn3ccccc3=O)cc2)cc1C(=O)NCc1ccccc1C(F)F [Example 68, N-{[2-(difluoromethyl)phenyl]methyl}-3-(methoxymethyl)-1-({4-[(2-oxopyridin-1-yl)methyl]phenyl}methyl)pyrazole-4-carboxamide] | 6% | 81.1 nM | > 10000 nM
4 | Nc1nn(Cc2ccc(Cn3ccccc3=O)cc2)cc1C(=O)NCc1c(F)cccc1C(F)(F)F [Example 70, 3-amino-N-{[2-fluoro-6-(trifluoromethyl)phenyl]methyl}-1-({4-[(2-oxopyridin-1-yl)methyl]phenyl}methyl)pyrazole-4-carboxamide] | 6% | 26.7 nM | > 10000 nM
5 | COc1cccc(CNC(=O)c2cn(Cc3ccc(Cn4ccccc4=O)cc3)nc2N(C)C(C)=O)c1F [Example 72, N-[(2-fluoro-3-methoxyphenyl)methyl]-3-(N-methylacetamido)-1-({4-[(2-oxopyridin-1-yl)methyl]phenyl}methyl)pyrazole-4-carboxamide] | 1% | 6610 nM | > 10000 nM
6 | COCc1nn(Cc2ccc(Cn3ccccc3=O)cc2)cc1C(=O)NCc1cc(Cl)ccc1C#N [Example 76, N-[(5-chloro-2-cyanophenyl)methyl]-3-(methoxymethyl)-1-({4-[(2-oxopyridin-1-yl)methyl]phenyl}methyl)pyrazole-4-carboxamide] | 5% | 28.3 nM | > 40000 nM
7 | COCc1nn(Cc2ccc(Cn3ccccc3=O)cc2)cc1C(=O)NCc1cccc(OC)c1C(F)(F)F [Example 78, N-{[3-methoxy-2-(trifluoromethyl)phenyl]methyl}-3-(methoxymethyl)-1-({4-[(2-oxopyridin-1-yl)methyl]phenyl}methyl)pyrazole-4-carboxamide] | 0% | 612 nM | > 10000 nM
8 | COCc1nn(Cc2ccc(Cn3ccccc3=O)cc2)cc1C(=O)NCc1cc(OC)ccc1C(F)F [Example 81, N-{[2-(difluoromethyl)-5-methoxyphenyl]methyl}-3-(methoxymethyl)-1-({4-[(2-oxopyridin-1-yl)methyl]phenyl}methyl)pyrazole-4-carboxamide] | 1% | 2.3 nM | > 40000 nM
9 | COCc1nn(Cc2ccc(Cn3ccccc3=O)cc2)cc1C(=O)NCc1ccccc1C(=O)O [Example 87, 2-({[3-(methoxymethyl)-1-({4-[(2-oxopyridin-1-yl)methyl]phenyl}methyl)pyrazol-4-yl]formamido}methyl)benzoic acid] | 2% | > 10000 nM | > 10000 nM
10 | COCc1nn(Cc2ccc(Cn3ccccc3=O)cc2)cc1C(=O)NCc1cccc(OC(F)F)c1F [Example 90, N-{[3-(difluoromethoxy)-2-fluorophenyl]methyl}-3-(methoxymethyl)-1-({4-[(2-oxopyridin-1-yl)methyl]phenyl}methyl)pyrazole-4-carboxamide] | 2% | 154 nM | > 40000 nM

More lines, in order of falling IC50 (Human plasma kallikrein), values ahead:

Row | inhibition at 40 µM (Human FXIa) | IC50 (Human plasma kallikrein) | IC50 (Human KLK1) | SMILES
11 | 0% | 572 nM | > 10000 nM | COCc1nn(Cc2ccc(Cn3ccccc3=O)cc2)cc1C(=O)NCc1ccccc1F [Example 62, N-[(2-fluorophenyl)methyl]-3-(methoxymethyl)-1-({4-[(2-oxopyridin-1-yl)methyl]phenyl}methyl)pyrazole-4-carboxamide]
12 | 0% | 523 nM | > 10000 nM | COCc1nn(Cc2ccc(Cn3ccccc3=O)cc2)cc1C(=O)NCc1cccc(OC(F)F)c1 [Example 91, N-{[3-(difluoromethoxy)phenyl]methyl}-3-(methoxymethyl)-1-({4-[(2-oxopyridin-1-yl)methyl]phenyl}methyl)pyrazole-4-carboxamide]
13 | 0% | 393 nM | > 10000 nM | COCc1nn(Cc2ccc(Cn3ccccc3=O)cc2)cc1C(=O)NCc1cc(Cl)cc(OC)c1 [Example 67, N-[(3-chloro-5-methoxyphenyl)methyl]-3-(methoxymethyl)-1-({4-[(2-oxopyridin-1-yl)methyl]phenyl}methyl)pyrazole-4-carboxamide]
14 | 0% | 342 nM | > 10000 nM | COCc1nn(Cc2ccc(Cn3ccccc3=O)cc2)cc1C(=O)NCc1ccccc1C(F)(F)F [Example 63, 3-(methoxymethyl)-1-({4-[(2-oxopyridin-1-yl)methyl]phenyl}methyl)-N-{[2-(trifluoromethyl)phenyl]methyl}pyrazole-4-carboxamide]
15 | 0% | 300 nM | > 10000 nM | COc1cccc(CNC(=O)c2cn(Cc3ccc(Cn4ccccc4=O)cc3)nc2NC(C)=O)c1F [Example 71, 3-acetamido-N-[(2-fluoro-3-methoxyphenyl)methyl]-1-({4-[(2-oxopyridin-1-yl)methyl]phenyl}methyl)pyrazole-4-carboxamide]
16 | 8% | 120 nM | > 10000 nM | COCc1nn(Cc2ccc(Cn3ccccc3=O)cc2)cc1C(=O)NCc1c(F)ccc(Cl)c1F [Example 73, N-[(3-chloro-2,6-difluorophenyl)methyl]-3-(methoxymethyl)-1-({4-[(2-oxopyridin-1-yl)methyl]phenyl}methyl)pyrazole-4-carboxamide]
17 | 46% | 79.2 nM | > 40000 nM | COCc1nn(Cc2ccc(Cn3ccccc3=O)cc2)cc1C(=O)NCc1c(F)cccc1C(N)=O [Example 85, N-[(2-carbamoyl-6-fluorophenyl)methyl]-3-(methoxymethyl)-1-({4-[(2-oxopyridin-1-yl)methyl]phenyl}methyl)pyrazole-4-carboxamide]
18 | 0% | 16.8 nM | > 40000 nM | COCc1nn(Cc2ccc(Cn3ccccc3=O)cc2)cc1C(=O)NCc1cccc(OC)c1C(F)F [Example 69, N-{[2-(difluoromethyl)-3-methoxyphenyl]methyl}-3-(methoxymethyl)-1-({4-[(2-oxopyridin-1-yl)methyl]phenyl}methyl)pyrazole-4-carboxamide]
19 | 2% | 14.7 nM | > 40000 nM | COCc1nn(Cc2ccc(Cn3ccccc3=O)cc2)cc1C(=O)NCc1cc(OC)ccc1C(F)(F)F [Example 79, N-{[5-methoxy-2-(trifluoromethyl)phenyl]methyl}-3-(methoxymethyl)-1-({4-[(2-oxopyridin-1-yl)methyl]phenyl}methyl)pyrazole-4-carboxamide]
